Molecules are shown by their SMILES. Structures can show the parent of a compound that is named as a salt. Where two headings read alike, the source gives them in different places.

Experiment in all cases: AK assay 384-well format, Prestwick library screening
Assay [1] relates to A. baumannii strain 98-37-09. The format is cell-based, Acinetobacter baumannii. Particulars: for fold induction at 50 µM: Acinetobacter baumannii, 983709, 3 h.
The subject of another assay is K. pneumoniae. The format is cell-based, Klebsiella pneumoniae. Particulars: for fold induction at 50 µM: Klebsiella pneumoniae, 3 h.
Another assay concerns E. coli. The assay is classed as cell-based, Escherichia coli. The following applies: for fold induction at 50 µM: Escherichia coli, 3 h.
For another assay, the system named is E. faecium. The assay is classed as cell-based, Enterococcus faecium. Particulars: for fold induction at 50 µM: Enterococcus faecium, 3 h.
The test system of the next assay is E. cloacae. The format is cell-based, Enterobacter cloacae. Particulars: for fold induction at 50 µM: Enterobacter cloacae, 3 h.
Another assay relates to P. aeruginosa. The assay is classed as cell-based, Pseudomonas aeruginosa. The following applies: for fold induction at 50 µM: Pseudomonas aeruginosa, 3 h.
In assay [2] the test system is S. aureus strain USA300-0114. The format is cell-based, Staphylococcus aureus. The following applies: for fold induction at 50 µM: Staphylococcus aureus, USA300, 3 h.
Where [3] appears, read: 50 μM final drug concentration, planktonic, cutoff for positive-scoring molecules 3-fold increase, read-out: AK-based Prestwick Library Screening Results, A. baumannii (fold increase in extracellular AK activity).
Setting [4] is: 50 μM final drug concentration, planktonic, cutoff for positive-scoring molecules 3-fold increase, read-out: AK-based Prestwick Library Screening Results, K. pneumoniae (fold increase in extracellular AK activity).
The mark [5] stands for this setting: 50 μM final drug concentration, planktonic, cutoff for positive-scoring molecules 3-fold increase, read-out: AK-based Prestwick Library Screening Results, E. coli (fold increase in extracellular AK activity).
Setting [6] is: 50 μM final drug concentration, planktonic, cutoff for positive-scoring molecules 3-fold increase, read-out: AK-based Prestwick Library Screening Results, E. faecium (fold increase in extracellular AK activity).
[7] abbreviates: 50 μM final drug concentration, planktonic, cutoff for positive-scoring molecules 3-fold increase, read-out: AK-based Prestwick Library Screening Results, E. cloacae (fold increase in extracellular AK activity).
[8] abbreviates: 50 μM final drug concentration, planktonic, cutoff for positive-scoring molecules 3-fold increase, read-out: AK-based Prestwick Library Screening Results, P. aeruginosa (fold increase in extracellular AK activity).
[9] abbreviates: 50 μM final drug concentration, planktonic, cutoff for positive-scoring molecules 3-fold increase, read-out: AK-based Prestwick Library Screening Results, S. aureus (fold increase in extracellular AK activity).
Where [10] appears, read: planktonic A. baumannii, 50 μM final drug concentration, 384-well, cutoff for positive-scoring molecules 3-fold increase, read-out: AK-based Prestwick Library Screening Results: A. baumannii (increase in extracellular AK activity).
The mark [11] stands for this setting: planktonic K. pneumoniae, 50 μM final drug concentration, 384-well, cutoff for positive-scoring molecules 3-fold increase, read-out: AK-based Prestwick Library Screening Results: K. pneumoniae (increase in extracellular AK activity).
[12] abbreviates: planktonic E. coli, 50 μM final drug concentration, 384-well, cutoff for positive-scoring molecules 3-fold increase, read-out: AK-based Prestwick Library Screening Results: E. coli (increase in extracellular AK activity).
[13] abbreviates: planktonic E. faecium, 50 μM final drug concentration, 384-well, cutoff for positive-scoring molecules 3-fold increase, read-out: AK-based Prestwick Library Screening Results: E. faecium (increase in extracellular AK activity).
Setting [14] is: planktonic E. cloacae, 50 μM final drug concentration, 384-well, cutoff for positive-scoring molecules 3-fold increase, read-out: AK-based Prestwick Library Screening Results: E. cloacae (increase in extracellular AK activity).
Where [15] appears, read: planktonic P. aeruginosa, 50 μM final drug concentration, 384-well, cutoff for positive-scoring molecules 3-fold increase, read-out: AK-based Prestwick Library Screening Results: P. aeruginosa (increase in extracellular AK activity).
Setting [16] is: planktonic S. aureus, 50 μM final drug concentration, 384-well, cutoff for positive-scoring molecules 3-fold increase, read-out: AK-based Prestwick Library Screening Results: S. aureus (increase in extracellular AK activity).
The mark [17] stands for this setting: 50 μM final drug concentration, planktonic, […].
Where [18] appears, read: 50 μM final drug concentration, 384-well format, cutoff for positive-scoring molecules 3-fold increase.

On to `CC/C(=C(/CC)c1ccc(O)cc1)c1ccc(O)cc1` [Diethylstilbestrol], for which the fold induction at 50 µM in assay [1] (setting [3]) was 1.8; in the assay on K. pneumoniae (setting [4]) it was 0.7; with E. coli (setting [5]) it was 0.9; with E. faecium (setting [6]), 1.1; with E. cloacae (setting [7]), 1.4; with P. aeruginosa (setting [8]), 0.8. For the same molecule, the fold induction at 50 µM in assay [2] (setting [9]) came out at 0.6.

As for `COc1cc(C(=O)NCc2ccc(OCCN(C)C)cc2)cc(OC)c1OC` [Trimethobenzamide hydrochloride], the fold induction at 50 µM in assay [1] (setting [10]) came out at 1.2; in the assay with K. pneumoniae (setting [11]), 1.1; in the assay on E. coli (setting [12]), 1.2; with E. faecium (setting [13]), 1.1; with E. cloacae (setting [14]), 1.3; with P. aeruginosa (setting [15]), 1. Also, in assay [2] (setting [16]), the fold induction at 50 µM came out at 1.2.

For the molecule `O=C1CN(/N=C/c2ccc(-c3ccc([N+](=O)[O-])cc3)o2)C(O)=N1` [Dantrolene sodium salt], the fold induction at 50 µM turned out to be 1.1 in assay [1] (setting [10]); 0.9 with K. pneumoniae (setting [11]); 1 in the assay on E. coli (setting [12]); 1 in the assay with E. faecium (setting [13]); 1.5 in the assay with E. cloacae (setting [14]); 1.2 in the assay with P. aeruginosa (setting [15]). In assay [2] (setting [16]), the fold induction at 50 µM was 1.1.

For `CCC(C)(C)C(=O)O[C@H]1C[C@@H](C)C=C2C=C[C@H](C)[C@H](CC[C@@H]3C[C@@H](O)CC(=O)O3)[C@H]21` [Simvastatin], the fold induction at 50 µM stood at 2.5 in assay [1] (read-out: AK-based Prestwick Library Screening Results, A. baumannii (fold increase in extracellular AK activity)); 1.2 with K. pneumoniae (read-out: AK-based Prestwick Library Screening Results, K. pneumoniae (fold increase in extracellular AK activity)); 1.6 with E. coli (read-out: AK-based Prestwick Library Screening Results, E. coli (fold increase in extracellular AK activity)); 1 in the assay with E. faecium (read-out: AK-based Prestwick Library Screening Results, E. faecium (fold increase in extracellular AK activity)); 1.5 with E. cloacae (read-out: AK-based Prestwick Library Screening Results, E. cloacae (fold increase in extracellular AK activity)); 1.1 with P. aeruginosa (read-out: AK-based Prestwick Library Screening Results, P. aeruginosa (fold increase in extracellular AK activity)). Moreover, in assay [2] (read-out: AK-based Prestwick Library Screening Results, S. aureus (fold increase in extracellular AK activity)), the fold induction at 50 µM turned out to be 0.4.

As to `CC1CCC2C(C)C3C(CC4C5CC=C6CC(OC7OC(CO)C(O)C(OC8OC(CO)C(O)C(O)C8O)C7OC7OC(C)C(O)C(O)C7O)CCC6(C)C5CCC43C)N2C1` (stereo not drawn) [Solanine alpha], the “AK-based Prestwick Library Screening Results, A. baumannii (fold increase in extracellular AK activity)” value in assay [1] (setting [17]) is recorded as 1.3. Further, the “AK-based Prestwick Library Screening Results, K. pneumoniae (fold increase in extracellular AK activity)” value in the assay with K. pneumoniae (setting [17]) was found to be 1.2. The “AK-based Prestwick Library Screening Results, E. coli (fold increase in extracellular AK activity)” value with E. coli (setting [17]) was determined as 1.2. The “AK-based Prestwick Library Screening Results, E. faecium (fold increase in extracellular AK activity)” value with E. faecium (setting [17]) came out at 1.0. For the same molecule, in the assay on E. cloacae (setting [17]), the “AK-based Prestwick Library Screening Results, E. cloacae (fold increase in extracellular AK activity)” value was 1.7. In the assay on P. aeruginosa (setting [17]), the “AK-based Prestwick Library Screening Results, P. aeruginosa (fold increase in extracellular AK activity)” value came to 1.2. Moreover, the “AK-based Prestwick Library Screening Results, S. aureus (fold increase in extracellular AK activity)” value in assay [2] (setting [17]) amounted to 1.2.

For the molecule `CC(=O)Nc1ccc(OCC(O)CNC(C)C)cc1` (stereo not shown) [Practolol], the fold induction at 50 µM in assay [1] (planktonic A. baumannii, 50 μM final drug concentration, cutoff for positive-scoring molecules 3-fold increase, read-out: AK-based Prestwick Library Screening Results, A. baumannii (increase in extracellular AK activity)) came to 0.7; with K. pneumoniae (planktonic K. pneumoniae, 50 μM final drug concentration, cutoff for positive-scoring molecules 3-fold increase, read-out: AK-based Prestwick Library Screening Results, K. pneumoniae (increase in extracellular AK activity)), 0.5; with E. coli (planktonic E. coli, 50 μM final drug concentration, cutoff for positive-scoring molecules 3-fold increase, read-out: AK-based Prestwick Library Screening Results, E. coli (increase in extracellular AK activity)) it was 0.7; in the assay with E. faecium (planktonic E. faecium, 50 μM final drug concentration, cutoff for positive-scoring molecules 3-fold increase, read-out: AK-based Prestwick Library Screening Results, E. faecium (increase in extracellular AK activity)), 0.9; in the assay on E. cloacae (planktonic E. cloacae, 50 μM final drug concentration, cutoff for positive-scoring molecules 3-fold increase, read-out: AK-based Prestwick Library Screening Results, E. cloacae (increase in extracellular AK activity)), 0.8; in the assay on P. aeruginosa (planktonic P. aeruginosa, 50 μM final drug concentration, cutoff for positive-scoring molecules 3-fold increase, read-out: AK-based Prestwick Library Screening Results, P. aeruginosa (increase in extracellular AK activity)), 0.6. Further, in assay [2] (planktonic S. aureus, 50 μM final drug concentration, cutoff for positive-scoring molecules 3-fold increase, read-out: AK-based Prestwick Library Screening Results, S. aureus (increase in extracellular AK activity)), the fold induction at 50 µM worked out at 0.6.

For the molecule `CO[C@@]1(NC(=O)Cc2cccs2)C(=O)N2C(C(=O)O)=C(COC(N)=O)CS[C@@H]21` [Cefoxitin sodium salt], the fold induction at 50 µM came out at 1.3 in assay [1] (setting [3]); 3.2 with K. pneumoniae (setting [4]); 20.1 in the assay with E. coli (setting [5]); 1 in the assay on E. faecium (setting [6]); 1.2 with E. cloacae (setting [7]); 0.8 in the assay with P. aeruginosa (setting [8]). For the same molecule, the fold induction at 50 µM in assay [2] (setting [9]) came out at 3.4.

With `CC(=O)[N-]S(=O)(=O)c1ccc(N)cc1.O.[Na+]` [Sulfacetamide sodic hydrate], the “AK-based Prestwick Library Screening Results, A. baumannii (increase in extracellular AK activity)” value in assay [1] (setting [18]) worked out at 2.2. The “AK-based Prestwick Library Screening Results, K. pneumoniae (increase in extracellular AK activity)” value in the assay with K. pneumoniae (setting [18]) is 0.5. Also, the “AK-based Prestwick Library Screening Results, E. coli (increase in extracellular AK activity)” value in the assay with E. coli (setting [18]) is given as 0.6. Moreover, in the assay with E. faecium (setting [18]), the “AK-based Prestwick Library Screening Results, E. faecium (increase in extracellular AK activity)” value is recorded as 0.9. The “AK-based Prestwick Library Screening Results, E. cloacae (increase in extracellular AK activity)” value with E. cloacae (setting [18]) is on record as 0.7. Moreover, in the assay with P. aeruginosa (setting [18]), the “AK-based Prestwick Library Screening Results, P. aeruginosa (increase in extracellular AK activity)” value is 0.5. Also, the “AK-based Prestwick Library Screening Results, S. aureus (increase in extracellular AK activity)” value in assay [2] (setting [18]) was 0.7.

Turning to `CN1CCOC(c2ccccc2)c2ccccc2C1` (stereo not shown) [Nefopam hydrochloride], the fold induction at 50 µM was 1.4 in assay [1] (setting [10]); 0.9 in the assay on K. pneumoniae (setting [11]); 1.2 in the assay with E. coli (setting [12]); 1 in the assay on E. faecium (setting [13]); 1.4 with E. cloacae (setting [14]); 1.2 with P. aeruginosa (setting [15]). Also, in assay [2] (setting [16]), the fold induction at 50 µM was found to be 1.1.

As to `Oc1ccc2c3c1O[C@H]1[C@@H](O)CC[C@@]4(O)[C@@H](C2)N(CC2CCC2)CC[C@]314` [Nalbuphine hydrochloride], the fold induction at 50 µM turned out to be 0.9 in assay [1] (read-out: AK-based Prestwick Library Screening Results, A. baumannii (increase in extracellular AK activity)); 0.7 with K. pneumoniae (read-out: AK-based Prestwick Library Screening Results, K. pneumoniae (increase in extracellular AK activity)); 0.9 in the assay on E. coli (read-out: AK-based Prestwick Library Screening Results, E. coli (increase in extracellular AK activity)); 0.9 in the assay on E. faecium (read-out: AK-based Prestwick Library Screening Results, E. faecium (increase in extracellular AK activity)); 1.2 in the assay with E. cloacae (read-out: AK-based Prestwick Library Screening Results, E. cloacae (increase in extracellular AK activity)); 0.8 in the assay with P. aeruginosa (read-out: AK-based Prestwick Library Screening Results, P. aeruginosa (increase in extracellular AK activity)). In addition, the fold induction at 50 µM in assay [2] (read-out: AK-based Prestwick Library Screening Results, S. aureus (increase in extracellular AK activity)) was 0.7.

Values taken from patent US10004701B2, “Methods and compositions for treating infection” (UNIVERSITY OF ROCHESTER, priority 2012, dated 2018).
